System: TPA-induced mouse ear edema
Experiment: TPA-induced mouse ear edema test, single topical application
Format: in vivo
Details: Balb/c mice
Method: Evaluation of the Anti-Inflammatory Activity of Apratastat after a Single Topical Application in the TPA-Induced Mouse Ear Edema Test on Balb/c Mice (TPA=Tetradecanoylphorbol Acetate)
Edema is induced by single application of 20 μl of TPA dissolved in acetone at 0.01%.
The test compound is diluted in a TPA solution and applied at a concentration of 0.1%, 0.3% to 1%.
A positive control, betamethasone valerate (VdB), is also tested.
The thickness of the mouse ear is measured at T+6 h.

SMILES | reduction of the edema of the ear induced by TPA (single topical application at 0.1% in TPA solution, ear thickness at T+6 h, NS) | reduction of the edema of the ear induced by TPA (single topical application at 0.3% in TPA solution, ear thickness at T+6 h, **) | reduction of the edema of the ear induced by TPA (single topical application at 1% in TPA solution, ear thickness at T+6 h, **) | anti-inflammatory effect (in words) (single topical application, 0.1% to 1%, TPA-induced ear edema) | reduction in the edema of the ear (single topical application at 0.01%, diluted in TPA solution, ear thickness at T+6 h)
CC1(C)SCCN(S(=O)(=O)c2ccc(OCC#CCO)cc2)[C@H]1C(=O)NO [Apratastat, (3S)—N-hydroxy-4-({4-[(4-hydroxy-2-butynyl)oxy]phenyl}sulfonyl)-2,2-dimethyl-3-thiomorpholinecarboxamide] | 25% | 47% | 49% | dose-dependent anti-inflammatory effect | 
CCCCC(=O)O[C@]1(C(=O)CO)[C@@H](C)C[C@H]2[C@@H]3CCC4=CC(=O)C=C[C@]4(C)[C@@]3(F)[C@@H](O)C[C@@]21C [betamethasone valerate, reference compound] |  |  |  |  | 93%

— patent US20090137569A1, “Administration of (3S)-N-hydroxy-4-(sulfonyl)-2,2-dimethyl-3-thiomorpholine carboxamide or (S)-N_hydroxy-4-[4_(but-2-ynyloxy)phenylsulfonyl]-2,2-dimethyl thimomorpholine-3-carboxamide for preventing and/or treating inflammatory skin pathologies/afflictions” (GALDERMA RESEARCH & DEVELOPMENT, priority 2007, published 2009)
